Biological target: T1, CCR4 (Homo sapiens, UniProt P51679)
T1 construct: CEM Cells Endogenous Express CCR4; endogenous in cells; host or cells: CEM cells
T1 sequence (P51679 1-360): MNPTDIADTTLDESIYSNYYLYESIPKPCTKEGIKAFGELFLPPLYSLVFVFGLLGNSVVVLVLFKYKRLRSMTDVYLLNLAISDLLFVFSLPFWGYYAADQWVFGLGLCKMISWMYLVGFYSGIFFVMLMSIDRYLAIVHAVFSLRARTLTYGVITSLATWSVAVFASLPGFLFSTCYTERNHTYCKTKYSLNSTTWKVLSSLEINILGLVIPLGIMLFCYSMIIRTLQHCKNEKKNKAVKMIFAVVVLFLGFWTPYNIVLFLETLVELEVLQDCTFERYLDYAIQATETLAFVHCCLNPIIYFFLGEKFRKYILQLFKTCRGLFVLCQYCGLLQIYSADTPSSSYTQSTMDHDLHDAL
Assay: CEM cell chemotaxis (migration) assay to CCL22 (MDC) in 100% Fetal Bovine Serum (FBS)
Assay type: cell-based
Details: CEM cells in 100% FBS with 1% HEPEs; recombinant human CCL22 0.1 nM; 37° C. 60 minutes
Text: CEM Cells Endogenous Express CCR4
A chemotaxis assay can be used to determine the efficacy of potential receptor antagonists at blocking the migration mediated through chemokine receptors, such as CCR4. This assay is routinely performed using the ChemoTX® microchamber system with a 5 μm pore-sized polycarbonate membrane.
FBS: CEM Cells are collected by centrifugation at 400×g at room temperature, then suspended at 5 million/ml in 100% Fetal Bovine Serum (FBS) with 1% HEPEs. The compound being tested is serially diluted from a maximum final concentration of 10 μM (or an equivalent volume of its solvent (DMSO)) and is then added to the cell/buffer mixture. Separately, recombinant human CCL22 (MDC) at its EC50 concentration (0.1 nM) is placed in the lower wells of the ChemoTX® plate. The 5-μm (pore size) polycarbonate membrane was placed onto the plate, and 20 μL of the cell/compound mixture is transferred onto each well of the membrane. The plates are incubated at 37° C. for 60 minutes, after which the polycarbonate membranes are removed and 5 μl of the DNA-intercalating dye CyQUANT (Invitrogen, Carlsbad, CA) is added to the lower wells. The amount of fluorescence, corresponding to the number of migrated cells, is measured using a Spectrafluor Plus plate reader (TECAN, San Jose, CA).

| SMILES | IC50 [nM] |
| --- | --- |
| C[C@@H](Nc1nc(N2CCN(C(=O)[C@H]3CCC(=O)N3)CC2)ncc1Cl)c1cc(F)c(Cl)cc1Cl [Example 1.202] | < 100 |
| C[C@@H](Nc1nc(N2CC[C@H](NC(=O)CN(C)C)[C@@H](O)C2)ncc1Cl)c1ccc(Cl)cc1Cl [Example 1.203] | 100 to 1000 |
| C[C@H]1CC[C@H](C(=O)N2CCN(c3ncc(Cl)c(N[C@H](C)c4ccc(Cl)cc4Cl)n3)CC2)N1 [Example 1.204] | < 100 |
| C[C@@H](Nc1nc(N2CCN(C(=O)[C@H]3CCCN3)CC2)ncc1C#N)c1ccc(Cl)cc1Cl [Example 1.207] | 100 to 1000 |
| C[C@@H](Nc1nc(N2CCN(C(=O)[C@]3(C)CCCN3)CC2)ncc1Cl)c1ccc(Cl)cc1Cl [Example 1.208] | < 100 |
| C[C@@H](Nc1nc(N2CCC(O[C@@H]3CCNC3)CC2)ncc1Cl)c1ccc(Cl)cc1Cl [Example 1.211] | < 100 |
| C[C@@H](Nc1nc(N2CCN(C(=O)C3(N)COC3)CC2)ncc1Cl)c1ccc(Cl)cc1Cl [Example 1.212] | > 1000 |
| C[C@@H](Nc1nc(N2CCN(C(=O)[C@H](N)CO)CC2)ncc1Cl)c1ccc(Cl)cc1Cl [Example 1.213] | 100 to 1000 |
| CC(C)N1CCCC(C2CCN(c3ncc(Cl)c(N[C@H](C)c4ccc(Cl)cc4Cl)n3)CC2)C1 (stereo partly shown) [Example 1.214] | < 100 |
| COC[C@@H](N)C(=O)N1CCN(c2ncc(Cl)c(N[C@H](C)c3ccc(Cl)cc3Cl)n2)CC1 [Example 1.215] | 100 to 1000 |
| C[C@@H](Nc1nc(N2CC[C@H](NC(=O)[C@H]3C[C@@H](O)CN3)[C@@H](O)C2)ncc1Cl)c1ccc(Cl)cc1Cl [Example 1.216] | 100 to 1000 |
| C[C@@H](Nc1nc(N2CC[C@H](NC(=O)[C@H]3CN(C)C(=O)N3)[C@@H](O)C2)ncc1Cl)c1ccc(Cl)cc1Cl [Example 1.218] | > 1000 |
| C[C@@H](Nc1nc(N2CCC(NC(=O)[C@H]3CN(C)C(=O)N3)CC2)ncc1Cl)c1ccc(Cl)cc1Cl [Example 1.223] | > 1000 |
| C[C@@H](Nc1nc(N2CCN(C(=O)[C@H]3CCC(C)(C)N3)CC2)ncc1Cl)c1ccc(Cl)cc1Cl [Example 1.225] | < 100 |
| C[C@@H](Nc1nc(N2CCN(C(=O)[C@H]3CN(C)C(=O)N3)CC2)ncc1Cl)c1ccc(Cl)cc1Cl [Example 1.227] | < 100 |
| C[C@@H](Nc1nc(N2CCN(C(=O)C3(C)CCN(C)C3)CC2)ncc1Cl)c1ccc(Cl)cc1Cl (stereo partly shown) [Example 1.231] | < 100 |
| C[C@@H](Nc1nc(N2CCN(C(=O)[C@H]3CC(=O)N3)CC2)ncc1Cl)c1ccc(Cl)cc1Cl [Example 1.232] | 100 to 1000 |
| C[C@@H](Nc1nc(N2CCC(C(=O)NC[C@H]3CCC(=O)N3)CC2)ncc1Cl)c1ccc(Cl)cc1Cl [Example 1.235] | > 1000 |
| C[C@@H](Nc1nc(N2CCN(C(=O)[C@H]3CCCC(=O)N3)CC2)ncc1Cl)c1ccc(Cl)cc1Cl [Example 1.238] | < 100 |
| C[C@@H](Nc1nc(N2CCC(OC3CCN(C)C3)CC2)ncc1Cl)c1ccc(Cl)cc1Cl (stereo partly shown) [Example 1.241] | < 100 |
| C[C@@H](Nc1nc(N2CC[C@H](NC(=O)CCN(C)C)[C@@H](O)C2)ncc1Cl)c1ccc(Cl)cc1Cl [Example 1.245] | < 100 |
| C[C@@H]1CC[C@H](C(=O)N2CCN(c3ncc(Cl)c(N[C@H](C)c4ccc(Cl)cc4Cl)n3)CC2)N1 [Example 1.247] | < 100 |

The next lines start with the values.

| IC50 [nM] | SMILES |
| --- | --- |
| < 100 | COc1cnc(N2CCN(C(=O)[C@H]3CCCN3)CC2)nc1N[C@H](C)c1ccc(Cl)cc1Cl [Example 1.197] |
| < 100 | C[C@@H](Nc1nc(N2CCN(C(=O)[C@H]3CCC(=O)N3)CC2)ncc1Cl)c1c(F)cc(Cl)cc1Cl [Example 1.198] |
| 100 to 1000 | C[C@@H](Nc1nc(N2CCC(OC3CNC3)CC2)ncc1Cl)c1ccc(Cl)cc1Cl [Example 1.199] |
| < 100 | C[C@@H](Nc1nc(N2CCN(C(=O)[C@H]3CCCNC3)CC2)ncc1Cl)c1ccc(Cl)cc1Cl [Example 1.201] |
| 100 to 1000 | C[C@@H](Nc1nc(N2CCN(C(=O)C3(N)CCOCC3)CC2)ncc1Cl)c1ccc(Cl)cc1Cl [Example 1.205] |
| < 100 | C[C@@H](Nc1nc(N2CC[C@H](NC(=O)[C@H]3CCN(C)C3)[C@@H](O)C2)ncc1Cl)c1ccc(Cl)cc1Cl [Example 1.206] |
| 100 to 1000 | C[C@@H](Nc1nc(N2CCN(C(=O)C3CNC(=O)CN3)CC2)ncc1Cl)c1ccc(Cl)cc1Cl (stereo partly shown) [Example 1.209] |
| < 100 | C[C@@H](Nc1nc(N2CCN(C(=O)[C@@]3(C)CCCN3)CC2)ncc1Cl)c1ccc(Cl)cc1Cl [Example 1.210] |
| 100 to 1000 | C[C@@H](Nc1nc(N2CCN(C(=O)c3cn(C)cn3)CC2)ncc1Cl)c1ccc(Cl)cc1Cl [Example 1.217] |
| 100 to 1000 | C[C@@H](Nc1nc(N2CCN(C(=O)[C@H]3CCCN3CCC(F)(F)F)CC2)ncc1Cl)c1ccc(Cl)cc1Cl [Example 1.219] |
| < 100 | C[C@@H](Nc1nc(N2CCC([C@@H]3CCCN(CCC(=O)O)C3)CC2)ncc1Cl)c1ccc(Cl)cc1Cl [Example 1.220] |
| < 100 | C[C@@H](Nc1nc(N2CCC([C@H]3CCCN(CCC(=O)O)C3)CC2)ncc1Cl)c1ccc(Cl)cc1Cl [Example 1.221] |
| < 100 | C[C@@H](Nc1nc(N2CCN(C(=O)[C@H]3CNC(=O)N3)CC2)ncc1Cl)c1ccc(Cl)cc1Cl [Example 1.222] |
| < 100 | C[C@@H](Nc1nc(N2CC[C@H](NC(=O)[C@H]3CCCN3C)[C@@H](O)C2)ncc1Cl)c1ccc(Cl)cc1Cl [Example 1.224] |
| 100 to 1000 | C[C@@H](Nc1nc(N2CCC(C(=O)N[C@@H]3CCNC3=O)CC2)ncc1Cl)c1ccc(Cl)cc1Cl [Example 1.228] |
| > 1000 | C[C@@H](Nc1nc(N2CCN(C(=O)[C@@H]3CNCC(=O)N3)CC2)ncc1Cl)c1ccc(Cl)cc1Cl [Example 1.229] |
| < 100 | C[C@@H](Nc1nc(N2CCC(O[C@H]3CCNC3)CC2)ncc1Cl)c1ccc(Cl)cc1Cl [Example 1.230] |
| > 1000 | C[C@@H](Nc1nc(N2CCC(C(=O)N[C@H]3CCNC3=O)CC2)ncc1Cl)c1ccc(Cl)cc1Cl [Example 1.233] |
| 100 to 1000 | C[C@@H](Nc1nc(N2CCN(C(=O)C[C@H]3CCC(=O)N3)CC2)ncc1Cl)c1ccc(Cl)cc1Cl [Example 1.234] |
| < 100 | C[C@@H](Nc1nc(N2CCN(C(=O)[C@H]3CCN(C)C3)CC2)ncc1C(N)=O)c1ccc(Cl)cc1Cl [Example 1.236] |
| 100 to 1000 | CC(=O)N1CCC[C@@H]1C(=O)N1CCN(c2ncc(Cl)c(N[C@H](C)c3ccc(Cl)cc3Cl)n2)CC1 [Example 1.237] |
| < 100 | C[C@@H](Nc1nc(N2CCN(C(=O)[C@H]3CCC(=O)N3C)CC2)ncc1Cl)c1ccc(Cl)cc1Cl [Example 1.239] |
| < 100 | C[C@@H](Nc1nc(N2CCN(C(=O)C3CCCC(=O)N3)CC2)ncc1Cl)c1ccc(Cl)cc1Cl (stereo partly shown) [Example 1.240] |
| < 100 | CO[C@H]1CN(c2ncc(Cl)c(N[C@H](C)c3ccc(Cl)cc3Cl)n2)CC[C@@H]1NC(=O)[C@H]1CCCN1 [Example 1.242] |
| < 100 | C[C@@H](Nc1nc(N2CCN(C(=O)[C@H]3CCN(C)C3)CC2)ncc1C#N)c1ccc(Cl)cc1Cl [Example 1.243] |
| > 1000 | C[C@@H](Nc1nc(N2CCN(C(=O)[C@@]3(C)CCC(=O)N3)CC2)ncc1Cl)c1ccc(Cl)cc1Cl [Example 1.244] |
| 100 to 1000 | C[C@@H](Nc1nc(N2CC[C@H](NC(=O)[C@@]3(C)CCCN3)[C@@H](O)C2)ncc1Cl)c1ccc(Cl)cc1Cl [Example 1.246] |
